Laboratory results published in patent US12723063B2, “GIPR-agonist compounds” (Eli Lilly and Company, priority 2019, dated 2026).
*1 amine or outer side, *2 acyl side, *3 side chain or, on linkers, in order; H or OH if unused. Where a SMILES comes first, the peptide text is derived from it. Side-chain parts run from the residue outwards. [ ]: non-standard residue; d: D form. The star is where a group is joined. C20 diacid = O=C(O)CCCCCCCCCCCCCCCCCCC(=O)*; αMePhe(2-F) = C[C@](N)(Cc1ccccc1F)C(=O)O; γGlu = O=C(O)[C@H](CCC(=O)[*:2])N[*:1]; 4Pal = N[C@@H](Cc1ccncc1)C(=O)O; αMeL = CC(C)C[C@](C)(N)C(=O)O; Iva = CC[C@](C)(N)C(=O)O; Orn = NCCC[C@H](N)C(=O)O; AEEA = NCCOCCOCC(=O)O; Aib = CC(C)(N)C(=O)O

Target: T1, human GcgR (Homo sapiens, UniProt P47871)
T1 construct: expressed in transfected cells; crude membranes
T1 sequence (P47871 26-477): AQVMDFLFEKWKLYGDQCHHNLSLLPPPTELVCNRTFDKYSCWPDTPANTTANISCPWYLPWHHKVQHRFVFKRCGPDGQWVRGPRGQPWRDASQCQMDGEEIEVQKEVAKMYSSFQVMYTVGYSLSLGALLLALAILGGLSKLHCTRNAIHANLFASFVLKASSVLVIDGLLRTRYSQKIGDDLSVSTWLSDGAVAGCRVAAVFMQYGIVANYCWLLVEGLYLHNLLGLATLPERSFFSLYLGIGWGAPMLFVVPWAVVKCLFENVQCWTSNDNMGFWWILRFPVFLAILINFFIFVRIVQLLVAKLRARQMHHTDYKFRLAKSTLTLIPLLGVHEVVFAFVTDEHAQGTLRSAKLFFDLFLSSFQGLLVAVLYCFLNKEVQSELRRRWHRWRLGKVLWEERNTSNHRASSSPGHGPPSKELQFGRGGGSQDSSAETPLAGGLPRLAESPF
Test: [125I]-Glucagon binding, SPA with WGA beads, 0.1% bacitracin
Conditions: geometric mean, read-out: hGcgR Ki
How it was run: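 SPA competition binding with WGA beads on crude membranes from HEK293 cells stably expressing hGcgR. Buffer: 25 mM HEPES pH 7.4, 2.5 mM CaCl2, 1 mM MgCl2, 0.1% bacitracin, 0.003% Tween-20; 10-point 3-fold dilutions, NSB with 1 μM Gcg.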

SMILES | Ki
CC[C@H](C)[C@H](NC(=O)[C@H](Cc1ccccc1)NC(=O)[C@@H](NC(=O)CNC(=O)[C@H](CCC(=O)O)NC(=O)C(C)(C)NC(=O)[C@@H](N)Cc1ccc(O)cc1)[C@@H](C)O)C(=O)N[C@@H](CO)C(=O)N[C@@H](CC(=O)O)C(=O)N[C@@H](Cc1ccc(O)cc1)C(=O)N[C@@H](CO)C(=O)N[C@H](C(=O)N[C@@](C)(CC(C)C)C(=O)N[C@@H](CC(C)C)C(=O)N[C@@H](CC(=O)O)C(=O)N[C@@H](CCC(=O)O)C(=O)N[C@@H](CCCCNC(=O)COCCOCCNC(=O)COCCOCCNC(=O)CC[C@H](NC(=O)CCCCCCCCCCCCCCCCCCC(=O)O)C(=O)O)C(=O)N[C@@H](Cc1c[nH]cn1)C(=O)N[C@@H](CCC(N)=O)C(=O)NC(C)(C)C(=O)N[C@@H](CC(=O)O)C(=O)N[C@@H](Cc1ccccc1)C(=O)N[C@H](C(=O)N[C@@H](CCC(=O)O)C(=O)N[C@@H](Cc1ccncc1)C(=O)N[C@@H](CC(C)C)C(=O)N[C@@H](CC(C)C)C(=O)N[C@@H](C)C(=O)N[C@@H](CCC(N)=O)C(=O)NCC(=O)N1CCC[C@H]1C(=O)N[C@@H](CO)C(=O)N[C@@H](CO)C(=O)NCC(=O)N[C@@H](C)C(=O)N1CCC[C@H]1C(=O)N1CCC[C@H]1C(=O)N1CCC[C@H]1C(=O)N[C@@H](CO)C(N)=O)C(C)C)[C@@H](C)CC [Example 84] (H-Y[Aib]EGTFISDYSI[αMeL]LDEK([AEEA-AEEA-γGlu-C20 diacid])HQ[Aib]DFVE[4Pal]LLAQGPSSGAPPPS-NH2) | > 958 nM
CC[C@H](C)[C@H](NC(=O)[C@H](CCCN)NC(=O)[C@H](CC(=O)O)NC(=O)[C@H](CC(C)C)NC(=O)[C@](C)(CC(C)C)NC(=O)[C@@H](NC(=O)[C@H](CO)NC(=O)[C@H](Cc1ccc(O)cc1)NC(=O)[C@H](CC(=O)O)NC(=O)[C@H](CO)NC(=O)[C@@H](NC(=O)[C@H](Cc1ccccc1)NC(=O)[C@@H](NC(=O)CNC(=O)[C@H](CCC(=O)O)NC(=O)C(C)(C)NC(=O)[C@@H](N)Cc1ccc(O)cc1)[C@@H](C)O)[C@@H](C)CC)[C@@H](C)CC)C(=O)N[C@@H](Cc1c[nH]cn1)C(=O)N[C@@H](CCC(N)=O)C(=O)NC(C)(C)C(=O)N[C@@H](CC(=O)O)C(=O)N[C@@H](Cc1ccccc1)C(=O)N[C@H](C(=O)N[C@H](CCC(=O)O)C(=O)N[C@@H](Cc1ccc(O)cc1)C(=O)N[C@@H](CCCCNC(=O)COCCOCCNC(=O)COCCOCCNC(=O)CC[C@H](NC(=O)CCCCCCCCCCCCCCCCCCC(=O)O)C(=O)O)C(=O)N[C@@H](CC(C)C)C(=O)N[C@@H](CCC(=O)O)C(=O)NCC(=O)NCC(=O)N1CCC[C@H]1C(=O)N[C@@H](CO)C(=O)N[C@@H](CO)C(=O)NCC(=O)N[C@@H](C)C(=O)N1CCC[C@H]1C(=O)N1CCC[C@H]1C(=O)N1CCC[C@H]1C(=O)N[C@@H](CO)C(N)=O)C(C)C [Example 101] | > 961 nM
CC[C@H](C)[C@H](NC(=O)[C@H](CCCN)NC(=O)[C@H](CC(=O)O)NC(=O)[C@H](CC(C)C)NC(=O)[C@](C)(CC(C)C)NC(=O)[C@@H](NC(=O)[C@H](CO)NC(=O)[C@H](Cc1ccc(O)cc1)NC(=O)[C@H](CC(=O)O)NC(=O)[C@H](CO)NC(=O)[C@@H](NC(=O)[C@H](Cc1ccccc1)NC(=O)[C@@H](NC(=O)CNC(=O)[C@H](CCC(=O)O)NC(=O)C(C)(C)NC(=O)[C@@H](N)Cc1ccc(O)cc1)[C@@H](C)O)[C@@H](C)CC)[C@@H](C)CC)C(=O)N[C@@H](Cc1c[nH]cn1)C(=O)N[C@@H](CCC(N)=O)C(=O)NC(C)(C)C(=O)N[C@@H](CCC(=O)O)C(=O)N[C@@H](Cc1ccccc1)C(=O)N[C@H](C(=O)N[C@@H](CCC(=O)O)C(=O)N[C@@H](Cc1ccc(O)cc1)C(=O)N[C@@H](CCCCNC(=O)COCCOCCNC(=O)COCCOCCNC(=O)CC[C@H](NC(=O)CCCCCCCCCCCCCCCCCCC(=O)O)C(=O)O)C(=O)N[C@@H](CC(C)C)C(=O)N[C@@H](CCC(=O)O)C(=O)N[C@H](C(=O)NCC(=O)N1CCC[C@H]1C(=O)N[C@@H](CO)C(=O)N[C@@H](CO)C(=O)NCC(=O)N[C@@H](C)C(=O)N1CCC[C@H]1C(=O)N1CCC[C@H]1C(=O)N1CCC[C@H]1C(=O)N[C@@H](CO)C(N)=O)[C@@H](C)O)C(C)C [Example 105] (H-Y[Aib]EGTFISDYSI[αMeL]LD[Orn]IHQ[Aib]EFVEYK([AEEA-AEEA-γGlu-C20 diacid])LETGPSSGAPPPS-NH2) | > 960 nM
CC[C@H](C)[C@H](NC(=O)[C@H](CCCCN)NC(=O)[C@H](CC(=O)O)NC(=O)[C@H](CC(C)C)NC(=O)[C@](C)(CC(C)C)NC(=O)[C@@H](NC(=O)[C@H](CO)NC(=O)[C@H](Cc1ccc(O)cc1)NC(=O)[C@H](CC(=O)O)NC(=O)[C@H](CO)NC(=O)[C@@H](NC(=O)[C@H](Cc1ccccc1)NC(=O)[C@@H](NC(=O)CNC(=O)[C@H](CCC(=O)O)NC(=O)C(C)(C)NC(=O)[C@@H](N)Cc1ccc(O)cc1)[C@@H](C)O)[C@@H](C)CC)[C@@H](C)CC)C(=O)N[C@@H](Cc1c[nH]cn1)C(=O)N[C@@H](CCC(N)=O)C(=O)NC(C)(C)C(=O)N[C@@H](CC(=O)O)C(=O)N[C@@H](Cc1ccccc1)C(=O)N[C@H](C(=O)N[C@@H](CCC(=O)O)C(=O)N[C@@H](Cc1ccncc1)C(=O)N[C@@H](CCCCNC(=O)COCCOCCNC(=O)COCCOCCNC(=O)CC[C@H](NC(=O)CCCCCCCCCCCCCCCCCCC(=O)O)C(=O)O)C(=O)N[C@@H](CC(C)C)C(=O)N[C@@H](CCC(=O)O)C(=O)NCC(=O)NCC(=O)N1CCC[C@H]1C(=O)N[C@@H](CO)C(=O)N[C@@H](CO)C(=O)NCC(=O)N[C@@H](C)C(=O)N1CCC[C@H]1C(=O)N1CCC[C@H]1C(=O)N1CCC[C@H]1C(=O)N[C@@H](CO)C(N)=O)C(C)C [Example 109] (H-Y[Aib]EGTFISDYSI[αMeL]LDKIHQ[Aib]DFVE[4Pal]K([AEEA-AEEA-γGlu-C20 diacid])LEGGPSSGAPPPS-NH2) | > 960 nM
CC[C@H](C)[C@H](NC(=O)[C@H](CO)NC(=O)[C@H](Cc1ccc(O)cc1)NC(=O)[C@H](CC(=O)O)NC(=O)[C@H](CO)NC(=O)[C@@H](NC(=O)[C@H](Cc1ccccc1)NC(=O)[C@@H](NC(=O)CNC(=O)[C@H](CCC(=O)O)NC(=O)[C@@H](C)NC(=O)[C@@H](N)Cc1ccc(O)cc1)[C@@H](C)O)[C@@H](C)CC)C(=O)N[C@@H](CC(C)C)C(=O)N[C@@H](CC(C)C)C(=O)N[C@@H](CC(=O)O)C(=O)N[C@@H](CCCCN)C(=O)N[C@@H](CCCCNC(=O)COCCOCCNC(=O)COCCOCCNC(=O)CC[C@H](NC(=O)CCCCCCCCCCCCCCCCCCC(=O)O)C(=O)O)C(=O)N[C@@H](Cc1c[nH]cn1)C(=O)N[C@@H](CCC(N)=O)C(=O)N[C@@H](CCC(N)=O)C(=O)N[C@@H](CC(=O)O)C(=O)N[C@@H](Cc1ccccc1)C(=O)N[C@H](C(=O)N[C@@H](CCC(=O)O)C(=O)N[C@@H](Cc1c[nH]c2ccccc12)C(=O)N[C@@H](CC(C)C)C(=O)N[C@@H](CC(C)C)C(=O)N[C@@H](C)C(=O)N[C@@H](CCC(N)=O)C(=O)NCC(=O)N1CCC[C@H]1C(=O)N[C@@H](CO)C(=O)N[C@@H](CO)C(=O)NCC(=O)N[C@@H](C)C(=O)N1CCC[C@H]1C(=O)N1CCC[C@H]1C(=O)N1CCC[C@H]1C(=O)N[C@@H](CO)C(N)=O)C(C)C [Example 14] (H-Y[dA]EGTFISDYSILLDKK([AEEA-AEEA-γGlu-C20 diacid])HQQDFVEWLLAQGPSSGAPPPS-NH2) | > 230 nM
CC[C@H](C)[C@H](NC(=O)[C@H](CO)NC(=O)[C@H](Cc1ccc(O)cc1)NC(=O)[C@H](CC(=O)O)NC(=O)[C@H](CO)NC(=O)[C@@H](NC(=O)[C@](C)(Cc1ccccc1F)NC(=O)[C@@H](NC(=O)CNC(=O)[C@H](CCC(=O)O)NC(=O)C(C)(C)NC(=O)[C@@H](N)Cc1ccc(O)cc1)[C@@H](C)O)[C@@H](C)CC)C(=O)N[C@@H](CC(C)C)C(=O)N[C@@H](CC(C)C)C(=O)N[C@@H](CC(=O)O)C(=O)N[C@@H](CCCCN)C(=O)N[C@H](C(=O)N[C@@H](Cc1c[nH]cn1)C(=O)N[C@@H](CCC(N)=O)C(=O)NC(C)(C)C(=O)N[C@@H](CC(=O)O)C(=O)N[C@@H](Cc1ccccc1)C(=O)N[C@H](C(=O)N[C@@H](CCC(=O)O)C(=O)N[C@@H](Cc1ccncc1)C(=O)N[C@@H](CCCCNC(=O)COCCOCCNC(=O)COCCOCCNC(=O)CC[C@H](NC(=O)CCCCCCCCCCCCCCCCCCC(=O)O)C(=O)O)C(=O)N[C@@H](CC(C)C)C(=O)N[C@@H](CCC(=O)O)C(=O)N[C@@H](C)C(=O)NCC(=O)N1CCC[C@H]1C(=O)N[C@@H](CO)C(=O)N[C@@H](CO)C(=O)NCC(=O)N[C@@H](C)C(=O)N1CCC[C@H]1C(=O)N1CCC[C@H]1C(=O)N1CCC[C@H]1C(=O)N[C@@H](CO)C(N)=O)C(C)C)[C@@H](C)CC [Example 120] (H-Y[Aib]EGT[αMePhe(2-F)]ISDYSILLDKIHQ[Aib]DFVE[4Pal]K([AEEA-AEEA-γGlu-C20 diacid])LEAGPSSGAPPPS-NH2) | 575 nM
CC[C@H](C)[C@H](NC(=O)[C@H](CO)NC(=O)[C@H](Cc1ccc(O)cc1)NC(=O)[C@H](CC(=O)O)NC(=O)[C@H](CO)NC(=O)[C@@H](NC(=O)[C@](C)(CC)NC(=O)[C@@H](NC(=O)CNC(=O)[C@H](CCC(=O)O)NC(=O)C(C)(C)NC(=O)[C@@H](N)Cc1ccc(O)cc1)[C@@H](C)O)[C@@H](C)CC)C(=O)N[C@@](C)(CC(C)C)C(=O)N[C@@H](CC(C)C)C(=O)N[C@@H](CC(=O)O)C(=O)N[C@@H](CCCN)C(=O)N[C@@H](CCCCNC(=O)COCCOCCNC(=O)COCCOCCNC(=O)CC[C@H](NC(=O)CCCCCCCCCCCCCCCCCCC(=O)O)C(=O)O)C(=O)N[C@@H](Cc1c[nH]cn1)C(=O)N[C@@H](CCC(N)=O)C(=O)NC(C)(C)C(=O)N[C@@H](CC(=O)O)C(=O)N[C@@H](Cc1ccccc1)C(=O)N[C@H](C(=O)N[C@@H](CCC(=O)O)C(=O)N[C@@H](Cc1ccncc1)C(=O)N[C@@H](CC(C)C)C(=O)N[C@@H](CC(C)C)C(=O)N[C@@H](CCC(=O)O)C(=O)N[C@H](C(=O)NCC(=O)N1CCC[C@H]1C(=O)N[C@@H](CO)C(=O)N[C@@H](CO)C(=O)NCC(=O)N[C@@H](C)C(=O)N1CCC[C@H]1C(=O)N1CCC[C@H]1C(=O)N1CCC[C@H]1C(=O)N[C@@H](CO)C(N)=O)[C@@H](C)O)C(C)C [Example 77] (H-Y[Aib]EGT[Iva]ISDYSI[αMeL]LD[Orn]K([AEEA-AEEA-γGlu-C20 diacid])HQ[Aib]DFVE[4Pal]LLETGPSSGAPPPS-NH2) | > 958 nM
